Series [1] deals with CYP2C9 (Homo sapiens (Human), UniProt P11712). Kind of series: CYP2C9 inhibition study. In kind it is in vitro ADME. The following applies: 5 μM (precipitation at 15 μM). As for the experimental part:
(§1) Assessment of certain in vitro ADME (absorption, distribution, metabolism, and excretion) parameters for certain compounds of the invention was conducted by BioFocus (Saffron Walden, UK).

Series [2] addresses CYP3A4 (Homo sapiens (Human), UniProt P08684). Nature of the series: CYP3A4 inhibition study. In kind it is in vitro ADME. The following applies: for inhibition at 15 µM: human, read-out: 15 μM % Inh. As for the experimental part: as §1
Series [3] has as its target Syk (Homo sapiens (Human), UniProt P43405). Kind of series: Syk enzyme inhibition (FRET, Z-LYTE). In kind it is biochemical. A digest of the protocol:
(§2)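 Syk or c-Src enzyme (3000 or 2000 ng/mL solutions) was preincubated 2 h at RT with compound solutions at 1, 0.1, 0.01 or 0.001 µg/mL. Z-LYTE FRET peptide (8 µM solution) and ATP (800 µM solution for c-Src, 60 µM for Syk) were then added for 1 h, followed by protease development for 1 h. Phosphorylation was read as the coumarin/fluorescein emission ratio.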

A short description of series [4]: Plasma pharmacokinetics in rats, single intravenous or oral administration. Format: in vivo, rat (male Wistar). The following applies: rats. As for the experimental part:
Studies were conducted by Sai Life Sciences (Hinjewadi, Pune, India) to investigate the plasma pharmacokinetics and total colon tissue distribution of compounds of the invention. In particular, pharmacokinetic studies were carried out in: • male C57BL/6 mice, following a single oral administration; and • male Wistar rats following a single intravenous or oral administration.

In series [5] the target is c-Src (Homo sapiens (Human), UniProt P12931). Kind of series: c-Src enzyme inhibition (FRET, Z-LYTE). In kind it is biochemical. The procedure, abridged: as §2
Series [6] concerns endotoxin (LPS)-induced uveitis in Lewis rats. Nature of the series: Endotoxin-induced uveitis in rats (in vivo vi). Details: species or system rat. The following applies: for Cell counts / IL-1β Anterior tissue / IL-1β Posterior tissue: Table 7c, eyes of LPS-stimulated rats, 1 mg/mL; for cytokine levels in both the anterior and posterior segments of the eyes: rats treated with intravitreal endotoxin LPS, topical dosing. As for the experimental part:
Male, Lewis rats (6-8 weeks old, Charles River UK Limited) are housed in cages of 3 at 19-21° C. with a 12 h light/dark cycle (07:00/19:00) and fed a standard diet of rodent chow and water ad libitum. Non-fasted rats are weighed, individually identified on the tail with a permanent marker, and receive a single intravitreal administration into the right vitreous humor (5 μL dose volume) of 100 ng/animal of LPS (Escherichia coli 0111:B4 prepared in PBS, Sigma Aldrich, UK) using a 32-gauge needle. Untreated rats are injected with PBS. […] Following euthanasia, the right eye of each animal is enucleated and dissected into front (anterior) and back (posterior) sections around the lens. Each section is weighed and homogenised in 500 μL of sterile phosphate buffered saline followed by 20 minutes centrifugation at 12000 rpm at 4° C.

The target of series [7] is GSK 3α (Homo sapiens (Human), UniProt P49840). Nature of the series: GSK 3α enzyme inhibition (FRET, Z-LYTE; Method 2). Format: biochemical. The settings on record: read-out: IC50 Values for Enzyme Inhibition GSK3α. The procedure, abridged: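 Phosphorylation was taken from the donor (coumarin) to acceptor (fluorescein) emission ratio after 1 h protease development, which cleaves only unphosphorylated peptide. Before that, peptide (8 μM stock) plus ATP (40 μM stock) reacted 1 h. This followed a 105 min RT preincubation of GSK3-α with compound stocks of 10–0.01 μg/mL.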

The target in series [8] is p38 MAPKα (MAPK14) (Homo sapiens (Human), UniProt Q16539). Kind of series: p38 MAPKα enzyme inhibition (FRET, Z-LYTE; Method 2). In kind it is biochemical.
For series [9], the system named is β-catenin in d-U937 cells. Kind of series: Accumulation of β catenin in d-U937 cells (assay m). Format: cell-based, human. A digest of the protocol:
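U937 cells were differentiated with PMA (100 ng/mL) for 48–72 hr, then treated with compound or vehicle for 18 hr. After formaldehyde fixation, β-catenin was detected with a primary antibody and an HRP secondary using TMB (OD450–655). Signal was normalised to crystal violet cell staining (OD595).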

Series [10] has as its system TNBS-induced colitis in BDF1 mice. Nature of the series: TNBS-induced colitis in mice (in vivo iv). The settings on record: for inflammatory cell infiltrate in the reticular and laminar propria zones / ulcer grade and epithelial repair compared to the vehicle control: 5 mg/kg orally, 2 days; for inflammatory cell infiltrate in the reticular and laminar propria zones / ulcer grade and epithelial repair compared to the vehicle control / activity in in vivo model of colonic inflammation (histopathology analysis): TNBS-induced colitis, mice; for LP inflammation / Ulcer grade: TNBS-induced colitis in mice, 5 mg/kg oral; for activity in in vivo model of colonic inflammation (histopathology analysis): conducted over 2 days. Also on record: species or system mouse. As for the experimental part:
Non-fasted, 10-12 week old, male BDF1 mice are dosed by oral gavage twice daily with either vehicle (5 mL/kg), reference item (Budesonide 2.5 mg/kg) or test compound (1 or 5 mg/kg) one day before (Day −1) stimulation of the inflammatory response by treatment with 2,4,6-trinitrobenzenesulphonic acid (TNBS) (15 mg/mL in 50% ethanol/50% saline). On Day 0 of the study TNBS (200 μL) is administered intra-colonically via a plastic catheter with BID dosing of the vehicle, reference or test compound continuing for 2 or 4 days. During the study, animals are weighed every day and stool observations are made and recorded as a score, based on stool consistency. At the time of sacrifice on Day 2 (or Day 4), the large intestine is removed and the length and weight recorded. Sections of the colon are taken for histopathology scoring to determine disease severity.

Series [11] can be described thus: Hydrolytic stability study. Format: physicochemical. The settings on record: for % Parent Remaining: DMSO:water (3:1), 1 mg/mL. As for the experimental part: Chemical stability of compounds of the invention was assessed in a mixture of DMSO and water (3:1) at a test compound concentration of 1 mg/mL
Sample Preparation • A 1.0 mg sample of test compound was dissolved in 750 μL of DMSO. Water (250 μL) was added slowly, ensuring no precipitation occurred.
Recording Stability • A 50 μL aliquot of the test solution was removed and analysed in duplicate by 5 μL HPLC injections. The peak area for the test compound was recorded following manual integration of the corresponding UV trace. • The test solution was heated to 60° C., with stirring, and 50 μL aliquots removed for HPLC analysis at 5 and 24 h timepoints.

[12] abbreviates: male, Wistar, rat, plasma, intravenous 0.25 mg/kg.

Read-outs that look alike come from different tables or passages of the source.

Sequence of p38 MAPKα (MAPK14) (Q16539 whole entry): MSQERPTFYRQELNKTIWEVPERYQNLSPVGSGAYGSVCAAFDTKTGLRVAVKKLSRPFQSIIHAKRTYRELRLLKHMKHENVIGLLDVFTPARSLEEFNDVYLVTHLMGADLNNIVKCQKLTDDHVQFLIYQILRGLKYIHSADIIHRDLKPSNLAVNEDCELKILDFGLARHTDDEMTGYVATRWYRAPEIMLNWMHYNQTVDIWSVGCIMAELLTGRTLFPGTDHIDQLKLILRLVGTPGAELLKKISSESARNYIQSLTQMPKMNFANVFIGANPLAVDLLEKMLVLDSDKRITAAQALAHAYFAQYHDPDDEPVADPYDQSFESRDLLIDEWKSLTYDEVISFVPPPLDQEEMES
Sequence of c-Src (P12931 whole entry, looked up): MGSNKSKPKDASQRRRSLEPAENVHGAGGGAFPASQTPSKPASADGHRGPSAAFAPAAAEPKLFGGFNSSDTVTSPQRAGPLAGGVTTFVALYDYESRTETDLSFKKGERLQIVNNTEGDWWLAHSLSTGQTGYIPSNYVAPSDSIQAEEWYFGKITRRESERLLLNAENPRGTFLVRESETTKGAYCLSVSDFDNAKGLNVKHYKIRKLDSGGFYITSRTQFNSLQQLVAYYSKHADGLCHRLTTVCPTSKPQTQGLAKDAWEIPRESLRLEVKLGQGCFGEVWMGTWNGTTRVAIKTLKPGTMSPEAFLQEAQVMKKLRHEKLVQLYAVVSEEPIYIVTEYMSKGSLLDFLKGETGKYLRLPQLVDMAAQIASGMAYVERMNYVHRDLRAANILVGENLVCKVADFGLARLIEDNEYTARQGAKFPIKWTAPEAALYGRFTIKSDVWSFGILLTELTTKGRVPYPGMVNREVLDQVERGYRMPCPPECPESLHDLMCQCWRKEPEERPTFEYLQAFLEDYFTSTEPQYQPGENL
Sequence of CYP3A4 (P08684 whole entry): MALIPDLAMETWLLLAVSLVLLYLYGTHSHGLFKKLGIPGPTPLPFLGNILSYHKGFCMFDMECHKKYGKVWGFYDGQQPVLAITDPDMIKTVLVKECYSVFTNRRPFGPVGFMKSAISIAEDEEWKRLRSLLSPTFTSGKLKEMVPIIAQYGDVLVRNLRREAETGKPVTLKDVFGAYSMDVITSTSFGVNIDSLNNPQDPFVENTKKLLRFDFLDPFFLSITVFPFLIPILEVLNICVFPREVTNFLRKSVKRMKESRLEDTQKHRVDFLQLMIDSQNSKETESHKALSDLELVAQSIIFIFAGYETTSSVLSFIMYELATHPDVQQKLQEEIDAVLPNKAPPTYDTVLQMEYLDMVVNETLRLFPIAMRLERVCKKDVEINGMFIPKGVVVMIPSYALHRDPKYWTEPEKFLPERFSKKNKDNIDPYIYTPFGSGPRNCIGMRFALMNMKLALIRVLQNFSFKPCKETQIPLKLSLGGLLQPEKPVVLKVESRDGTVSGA
Sequence of GSK 3α (P49840 whole entry): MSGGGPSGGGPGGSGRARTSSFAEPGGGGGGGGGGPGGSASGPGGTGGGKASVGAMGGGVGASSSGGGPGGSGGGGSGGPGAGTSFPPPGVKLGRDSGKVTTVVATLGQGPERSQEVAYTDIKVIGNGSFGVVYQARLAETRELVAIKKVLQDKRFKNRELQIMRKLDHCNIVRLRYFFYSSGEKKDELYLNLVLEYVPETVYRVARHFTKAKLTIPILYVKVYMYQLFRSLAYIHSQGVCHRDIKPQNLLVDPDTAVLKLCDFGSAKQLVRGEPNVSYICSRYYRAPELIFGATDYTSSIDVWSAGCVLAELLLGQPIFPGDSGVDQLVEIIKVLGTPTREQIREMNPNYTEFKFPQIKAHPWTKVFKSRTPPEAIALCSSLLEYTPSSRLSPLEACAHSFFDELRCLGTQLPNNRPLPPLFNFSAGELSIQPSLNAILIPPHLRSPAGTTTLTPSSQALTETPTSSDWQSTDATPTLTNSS
Sequence of CYP2C9 (P11712 whole entry): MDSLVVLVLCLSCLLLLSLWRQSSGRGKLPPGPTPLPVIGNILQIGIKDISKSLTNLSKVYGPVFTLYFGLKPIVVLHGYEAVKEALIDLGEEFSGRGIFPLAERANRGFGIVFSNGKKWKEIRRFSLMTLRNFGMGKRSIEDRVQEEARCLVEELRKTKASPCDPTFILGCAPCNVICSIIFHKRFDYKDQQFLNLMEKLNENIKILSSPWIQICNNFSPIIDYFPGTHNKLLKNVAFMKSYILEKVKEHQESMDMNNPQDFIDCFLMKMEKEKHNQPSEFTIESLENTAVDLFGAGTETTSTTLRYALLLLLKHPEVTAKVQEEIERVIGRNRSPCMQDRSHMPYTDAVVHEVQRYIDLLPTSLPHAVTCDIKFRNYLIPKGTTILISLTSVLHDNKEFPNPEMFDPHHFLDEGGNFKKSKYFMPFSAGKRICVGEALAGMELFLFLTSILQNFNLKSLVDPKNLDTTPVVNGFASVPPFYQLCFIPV

For the compound `C#CC(C)(C)c1cc(NC(=O)Nc2ccc(Oc3ccnc(Nc4cc(C)c5[nH]ncc5c4)n3)c3ccccc23)n(-c2ccc(C)cc2)n1` [Ref Cpd A], the “% Inh (inhibition at 5 μM reported instead)” value was 31^[†] % in series [1] (CYP2C9, 0 min preincubation) and 66^[†] % in [1] (CYP2C9, 30 min preincubation). The “15 μM % Inh” value in series [2] (CYP3A4, 0 min preincubation) was 41%; in series [2] (CYP3A4, 30 min preincubation), 92%.

The IC50 is the point on the concentration scale where inhibition reaches its midpoint. By AUC(0-inf) is commonly meant the area under the concentration-time curve extrapolated to infinity. High values mean high exposure, low ones low exposure. Usually AUC(0-t) stands for exposure summed from dosing to a finite time, without extrapolation to infinity. A low value points to less exposure. The half-life is how long it takes for the measured level to halve. As for `CNC(=O)c1cc(C(C)(C)C)cc(NC(=O)Nc2ccc(Oc3ccnc(Nc4cc(OC)cc(OCCOCCOCCOC)c4)c3)c3ccccc23)c1OC` [Example 29, 5-(tert-Butyl)-2-methoxy-3-(3-(4-((2-((3-methoxy-5-(2-(2-(2-methoxyethoxy)ethoxy)-ethoxy)phenyl)amino)pyridin-4-yl)oxy)naphthalen-1-yl)ureido)-N-methylbenzamide], the 50% inhibitory concentration (IC50) was 96 nM in [3], 19 nM in series [5], 6320 nM in [7] and 26 nM in [8]. This compound registered an AUC(0-inf) in [4] (setting [12]) of 295 ng·h/mL. For the same compound, in series [4] (setting [12]), the area under the curve AUC(0-t) was found to be 293 ng·h/mL. For the same compound, the half-life in series [4] (setting [12]) is 42 min. Also, in series [4] (male, Wistar, rat, plasma, intravenous 0.25 mg/kg in 5% DMSO-7.5% Solutol HS15-87.5% normal saline), the C0 was 2500 ng/mL. Further, the Vd in series [4] (male, Wistar, rat, plasma, intravenous 0.25 mg/kg, read-out: Vss) came to 0.3 L/kg. The compound also had a CI in series [4] (intravenous 0.25 mg/kg) of 14.2 mL/min/kg. In [6], this compound had a Cell counts of 33.0 ± 6.7. The “IL-1β Anterior tissue” value in series [6] stood at 441.3 ± 138.5 pg/mL. The “IL-1β Posterior tissue” value in [6] is given as 272.1 ± 93.8 pg/mL. Moreover, the “cytokine levels in both the anterior and posterior segments of the eyes” value in series [6] is “significantly reduced”. The “% β-catenin induction” value in series [9] (test compound 1 μg/mL) is recorded as 4%; in [9] (test compound 5 μg/mL), 7%; in series [9] (test compound 10 μg/mL), −4%.

Take `COc1cc(Nc2cc(Oc3ccc(NC(=O)Nc4cc(C(C)(C)C)cc(NS(C)(=O)=O)c4OC)c4ccccc34)ccn2)cc(C(=O)NCCCN2CCOCC2)c1` [Example 66, 3-((4-((4-(3-(5-(tert-Butyl)-2-methoxy-3-(methysulfonamido)phenyl)ureido)naphthalen-1-yl)oxy)pyridin-2-yl)amino)-5-methoxy-N-(3-morpholinopropyl)benzamide]: the IC50 in [3] was determined as 330 nM; in [5] it was 23 nM; in series [7], 2430 nM; in series [8], 140 nM. Moreover, the Cell counts in series [6] came out at 28.0 ± 7.6. The “IL-1β Anterior tissue” value in [6] is given as 342.7 ± 145.3 pg/mL. In series [6], the “IL-1β Posterior tissue” value came to 209.9 ± 59.0 pg/mL. In addition, the “cytokine levels in both the anterior and posterior segments of the eyes” value in [6] was “significantly reduced”. The “% β-catenin induction” value in series [9] (test compound 1 μg/mL) was 0%; in series [9] (test compound 5 μg/mL), 6%; in [9] (test compound 10 μg/mL) it was 3%.

As to `COc1cc(Nc2cc(Oc3ccc(NC(=O)Nc4cc(C(C)(C)C)cc(NS(C)(=O)=O)c4OC)c4ccccc34)ccn2)cc(C(=O)NCCN2CCN(C)CC2)c1` [Example 79], the IC50 in [3] is 339 nM; in series [5] it was 35 nM; in series [7], 4330 nM; in series [8], 56 nM. Also, the “inflammatory cell infiltrate in the reticular and laminar propria zones” value in series [10] is given as “marked reduction”. The “ulcer grade and epithelial repair compared to the vehicle control” value in [10] is “marked improvements”. In addition, the LP inflammation in [10] is listed as 3.5 ± 0.5. In series [10], this compound yielded a Ulcer grade of 3.4 ± 0.6. Moreover, in [10], the “activity in in vivo model of colonic inflammation (histopathology analysis)” value is “substantial activity”. The “% β-catenin induction” value is −4% in series [9] (test compound 1 μg/mL), 1% in series [9] (test compound 5 μg/mL) and 5% in series [9] (test compound 10 μg/mL).

Turning to `COCCOCCOCCOc1cc(Nc2cc(Oc3ccc(NC(=O)Nc4cc(C(C)(C)C)cc(C(N)=O)c4OC)c4ccccc34)ccn2)cc(OC)c1` [Example 34, 5-(tert-Butyl)-2-methoxy-3-(3-(4-((2-((3-methoxy-5-(2-(2-(2-methoxyethoxy)ethoxy)ethoxy)phenyl)amino)pyridin-4-yl)oxy)naphthalen-1-yl)ureido)benzamide], the IC50 came out at 85 nM in [3], 19 nM in series [5], 9330 nM in [7] and 25 nM in series [8]. In addition, the “inflammatory cell infiltrate in the reticular and laminar propria zones” value in [10] is “marked reduction”. Also, in series [10], the “ulcer grade and epithelial repair compared to the vehicle control” value is listed as “marked improvements”. Also, the LP inflammation in series [10] is listed as 2.6 ± 0.3. In [10], the Ulcer grade worked out at 3.6 ± 0.2. Also, the “activity in in vivo model of colonic inflammation (histopathology analysis)” value in series [10] was “substantial activity”. Besides, the entries for the “% β-catenin induction” value in [9] (test compound 1 μg/mL), in series [9] (test compound 5 μg/mL) and in series [9] (test compound 10 μg/mL) were 1%, 7% and −9%, respectively.

For `COc1cc(Nc2nccc(Oc3ccc(NC(=O)Nc4cc(C(C)(C)C)cc(NS(C)(=O)=O)c4OC)c4ccccc34)n2)cc(S(=O)(=O)C2CC2)c1` [Example 5], the IC50 in [3] was 1170 nM; in series [5], 48 nM; in [7], 2870 nM; in series [8] it was 271 nM; in series [2] (CYP3A4, 0 min preincubation), above 15000 nM; in series [2] (CYP3A4, 30 min preincubation), above 15000 nM. Moreover, the inhibition at 15 µM in series [2] (CYP3A4, 0 min preincubation) was determined as 0%; in [2] (CYP3A4, 30 min preincubation) it was 27%. Moreover, the “% β-catenin induction” value in series [9] (test compound 1 μg/mL) was 10%; in [9] (test compound 5 μg/mL), 27%; in [9] (test compound 10 μg/mL), 19%.

As to `C#Cc1cc(Nc2nccc(Oc3ccc(NC(=O)Nc4cc(C(C)C)nn4-c4ccc(C)cc4)c4ccccc34)n2)cc(C(=O)NCCN2CCOCC2)c1` [Reference Compound B, 3-ethynyl-5-((4-((4-(3-(3-isopropyl-1-(p-tolyl)-1H-pyrazol-5-yl)ureido)naphthalen-1-yl)oxy)pyrimidin-2-yl)amino)-N-(2-morpholinoethyl)benzamide, reference compound], in series [11] (1 mg/mL in DMSO and water (3:1), 60° C., 5 and 24 h), the “decomposition under the conditions of the hydrolytic stability experiment” value is listed as “substantial decomposition”. Moreover, the “% Parent Remaining” value in series [11] (0 min) was determined as 100%; in series [11] (60° C., 300 min) it was 82%; in series [11] (60° C., 1440 min), 36%.

The values above are taken from US9481648B2, “Kinase inhibitors” (Respivert Limited, priority 2013, dated 2016).
